This is an account of results in patent publication US12559506B2, “Indazole based compounds and associated methods of use” (Arvinas Operations, Inc., priority 2021, dated 2026).

Each structure is given as a SMILES string. Like-named read-outs stand apart in the source and are kept apart here. A value given as a limit tells only on which side of the number the result lay.

In one experiment the target is T1, wildtype LRRK2 (Homo sapiens, UniProt Q5S007).
T1 construct: expressed in transfected cells; host or cells: HEK293 (ATCC CRL-1573), transient transfection, mammalian expression vector with ubiquitin promoter
T1 sequence (Q5S007 whole entry): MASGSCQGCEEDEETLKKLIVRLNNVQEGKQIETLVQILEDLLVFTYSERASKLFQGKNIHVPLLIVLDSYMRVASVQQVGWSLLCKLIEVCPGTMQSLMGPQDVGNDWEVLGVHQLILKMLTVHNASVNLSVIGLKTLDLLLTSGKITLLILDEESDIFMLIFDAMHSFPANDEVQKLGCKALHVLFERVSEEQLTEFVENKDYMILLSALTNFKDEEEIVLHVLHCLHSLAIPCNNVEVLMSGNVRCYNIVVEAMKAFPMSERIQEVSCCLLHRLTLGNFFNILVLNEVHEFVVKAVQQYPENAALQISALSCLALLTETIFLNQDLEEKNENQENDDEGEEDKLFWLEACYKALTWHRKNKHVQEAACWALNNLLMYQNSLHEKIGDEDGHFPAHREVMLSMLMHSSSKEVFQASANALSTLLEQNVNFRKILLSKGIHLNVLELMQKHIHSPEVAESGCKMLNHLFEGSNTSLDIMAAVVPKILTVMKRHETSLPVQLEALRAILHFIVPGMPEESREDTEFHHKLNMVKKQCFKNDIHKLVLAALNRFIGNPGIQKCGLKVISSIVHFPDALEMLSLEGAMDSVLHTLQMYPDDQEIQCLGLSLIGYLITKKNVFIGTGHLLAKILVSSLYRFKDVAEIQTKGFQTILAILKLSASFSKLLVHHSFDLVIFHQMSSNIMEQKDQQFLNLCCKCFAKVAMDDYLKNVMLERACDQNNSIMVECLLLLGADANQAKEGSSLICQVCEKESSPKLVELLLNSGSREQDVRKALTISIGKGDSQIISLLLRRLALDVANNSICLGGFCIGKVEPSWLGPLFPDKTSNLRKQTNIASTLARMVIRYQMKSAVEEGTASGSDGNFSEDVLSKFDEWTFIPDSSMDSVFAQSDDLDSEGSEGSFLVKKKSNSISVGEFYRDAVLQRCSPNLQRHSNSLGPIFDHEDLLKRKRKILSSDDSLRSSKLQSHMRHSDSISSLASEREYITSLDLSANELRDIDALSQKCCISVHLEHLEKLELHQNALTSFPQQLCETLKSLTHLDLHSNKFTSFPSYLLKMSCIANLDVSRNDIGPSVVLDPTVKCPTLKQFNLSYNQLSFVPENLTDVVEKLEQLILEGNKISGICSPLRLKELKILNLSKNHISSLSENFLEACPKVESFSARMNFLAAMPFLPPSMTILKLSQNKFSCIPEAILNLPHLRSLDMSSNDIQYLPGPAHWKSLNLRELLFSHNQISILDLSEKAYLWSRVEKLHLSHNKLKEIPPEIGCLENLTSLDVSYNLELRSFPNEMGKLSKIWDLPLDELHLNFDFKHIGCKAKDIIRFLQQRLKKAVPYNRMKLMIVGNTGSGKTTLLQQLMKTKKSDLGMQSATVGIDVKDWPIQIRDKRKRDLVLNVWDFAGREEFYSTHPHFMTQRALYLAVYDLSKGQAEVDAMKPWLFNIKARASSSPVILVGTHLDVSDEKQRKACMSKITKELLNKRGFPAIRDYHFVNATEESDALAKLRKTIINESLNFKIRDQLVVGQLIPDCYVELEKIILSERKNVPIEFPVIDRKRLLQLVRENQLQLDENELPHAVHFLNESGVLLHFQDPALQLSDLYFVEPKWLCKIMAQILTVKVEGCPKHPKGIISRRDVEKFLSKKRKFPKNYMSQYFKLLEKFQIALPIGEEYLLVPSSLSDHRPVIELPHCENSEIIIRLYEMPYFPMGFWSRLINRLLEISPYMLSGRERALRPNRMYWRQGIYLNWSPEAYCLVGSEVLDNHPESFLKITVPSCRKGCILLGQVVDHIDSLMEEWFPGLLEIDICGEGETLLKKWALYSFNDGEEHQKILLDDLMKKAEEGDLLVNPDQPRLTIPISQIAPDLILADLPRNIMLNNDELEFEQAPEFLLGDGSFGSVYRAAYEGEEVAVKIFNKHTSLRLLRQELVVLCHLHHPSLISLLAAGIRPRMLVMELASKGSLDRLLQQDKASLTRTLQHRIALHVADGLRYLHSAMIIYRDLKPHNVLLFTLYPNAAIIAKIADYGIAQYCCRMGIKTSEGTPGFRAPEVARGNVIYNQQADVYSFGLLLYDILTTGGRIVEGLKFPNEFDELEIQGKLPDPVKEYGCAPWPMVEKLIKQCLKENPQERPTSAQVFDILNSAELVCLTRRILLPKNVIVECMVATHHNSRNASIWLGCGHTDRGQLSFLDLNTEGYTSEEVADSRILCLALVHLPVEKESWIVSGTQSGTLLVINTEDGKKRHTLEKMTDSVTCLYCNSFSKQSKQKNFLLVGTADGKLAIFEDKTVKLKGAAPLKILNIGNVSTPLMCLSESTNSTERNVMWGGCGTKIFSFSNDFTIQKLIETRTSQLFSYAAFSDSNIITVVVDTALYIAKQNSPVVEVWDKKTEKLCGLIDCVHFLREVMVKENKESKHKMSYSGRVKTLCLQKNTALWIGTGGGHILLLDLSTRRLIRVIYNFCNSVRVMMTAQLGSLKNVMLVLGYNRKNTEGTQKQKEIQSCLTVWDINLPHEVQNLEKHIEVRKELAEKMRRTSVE
The experiment is described as follows: LRRK2 degradation assay, HiBit-tagged wildtype LRRK2 expressed from plasmid in HEK293 cells (Nano-Glo Dual-Luciferase). Format: cell-based. As to conditions: 24 hours; for Dmax: read-out: **WT Dmax (%); for DC50: read-out: *WT DC50. The essentials:
(§1)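 HEK293 cells co-transfected with C-terminal HiBiT-tagged LRRK2 (WT or G2019S, ubiquitin promoter) and firefly luciferase, then dosed 24 h at 37 °C. HiBiT/firefly ratio normalized to DMSO median; DC50 and Dmax from per-plate curve fits, six replicates over two days.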

For a further experiment, the target named is T2, G2019S LRRK2 (Homo sapiens, UniProt Q5S007, G2019S).
T2 construct: expressed in transfected cells; host or cells: HEK293 (ATCC CRL-1573), transient transfection, mammalian expression vector with ubiquitin promoter
T2 sequence (Q5S007 whole entry G2019S): as the sequence (Q5S007 whole entry) above, with G2019S counted along it
The experiment is described as follows: LRRK2 degradation assay, HiBit-tagged G2019S LRRK2 expressed from plasmid in HEK293 cells (Nano-Glo Dual-Luciferase). In kind it is cell-based. The note with it: 24 hours. The essentials: as §1

The mark [1] stands for this setting: HiBit-tagged wildtype LRRK2 in HEK293 cells.
The mark [2] stands for this setting: HiBit-tagged G2019S LRRK2 in HEK293 cells.
[3] abbreviates: HiBit-tagged wildtype LRRK2, HEK293 cells.
Where [4] appears, read: HiBit-tagged G2019S LRRK2, HEK293 cells.

In the case of `CC1(Oc2ccc3[nH]nc(-c4cc(N5CCC(CC6CCN(C(=O)C7CCN(c8ccc9c(c8)C(=O)N(C8CCC(=O)NC8=O)C9=O)CC7)CC6)CC5)ncn4)c3c2)CC1` (stereo not drawn) [Compound 92, 2-(2,6-dioxo-3-piperidyl)-5-[4-[4-[[1-[6-[5-(1-methylcyclopropoxy)-1H-indazol-3-yl]pyrimidin-4-yl]-4-piperidyl]methyl]piperidine-1-carbonyl]-1-piperidyl]isoindoline-1,3-dione], on wildtype LRRK2 (setting [1]), the Dmax is 50 to 70% and the half-maximal degradation concentration (DC50) is less than 10 nM. On G2019S LRRK2 (setting [2]), this molecule registered a 50% degradation concentration (DC50) of 10 to 50 nM and a maximal degradation (Dmax) of 50 to 70%.

Consider `CC1(Oc2ccc3[nH]nc(-c4cc(N5CCC(CN6CC7(CN(CC8CCN(c9ccc%10c(c9)C(=O)N(C9CCC(=O)NC9=O)C%10=O)CC8)C7)C6)CC5)ncn4)c3c2)CC1` (stereo not drawn) [Compound 175, 2-(2,6-dioxo-3-piperidyl)-5-[4-[[2-[[1-[6-[5-(1-methylcyclopropoxy)-1H-indazol-3-yl]pyrimidin-4-yl]-4-piperidyl]methyl]-2,6-diazaspiro[3.3]heptan-6-yl]methyl]-1-piperidyl]isoindoline-1,3-dione], for which the greatest degradation seen (Dmax) at wildtype LRRK2 (setting [3]) and at G2019S LRRK2 (setting [4]) was 50 to 70% each time. Moreover, the DC50 at wildtype LRRK2 (setting [3]) and on G2019S LRRK2 (setting [4]) was less than 10 nM throughout.

As to `CC1(Oc2ccc3[nH]nc(-c4cc(N5CCO[C@H](CN6CCC(OC7CCN(c8ccc9c(c8)C(=O)N(C8CCC(=O)NC8=O)C9=O)CC7)CC6)C5)ncn4)c3c2)CC1` (stereo partly drawn) [Compound 150, 2-(2,6-dioxopiperidin-3-yl)-5-{4-[(1-{[(2R)-4-{6-[5-(1-methylcyclopropoxy)-1H-indazol-3-yl]pyrimidin-4-yl}morpholin-2-yl]methyl}piperidin-4-yl)oxy]piperidin-1-yl}-2,3-dihydro-1H-isoindole-1,3-dione], on wildtype LRRK2 (setting [1]), the Dmax is 50 to 70% and the DC50 is less than 10 nM. On G2019S LRRK2 (setting [2]), this molecule had a DC50 of less than 10 nM and a maximal degradation (Dmax) of 50 to 70%.

Take `CC1(Oc2ccc3[nH]nc(-c4ccnc(N5CC(CCC6CCN(CC7CCN(c8ccc9c(c8)C(=O)N(C8CCC(=O)NC8=O)C9=O)CC7)CC6)C5)c4)c3c2)CC1` (stereo not drawn) [Compound 165, 2-(2,6-dioxo-3-piperidyl)-5-[4-[[4-[2-[1-[4-[5-(1-methylcyclopropoxy)-1H-indazol-3-yl]-2-pyridyl]azetidin-3-yl]ethyl]-1-piperidyl]methyl]-1-piperidyl]isoindoline-1,3-dione]: the results for the Dmax on wildtype LRRK2 (setting [3]) and on G2019S LRRK2 (setting [4]) were less than 50% and 50 to 70%, respectively. The 50% degradation concentration (DC50) on wildtype LRRK2 (setting [3]) and on G2019S LRRK2 (setting [4]) was less than 10 nM throughout.

On to `CC1(Oc2ccc3[nH]nc(-c4ccnc(N5CCN(CC6CCN(C(=O)C7CCN(c8ccc9c(c8)C(=O)N(C8CCC(=O)NC8=O)C9=O)CC7)CC6)CC5)c4)c3c2)CC1` (stereo not drawn) [Compound 91, 2-(2,6-dioxopiperidin-3-yl)-5-(4-{4-[(4-{4-[5-(1-methylcyclopropoxy)-1H-indazol-3-yl]pyridin-2-yl}piperazin-1-yl)methyl]piperidine-1-carbonyl}piperidin-1-yl)-2,3-dihydro-1H-isoindole-1,3-dione], for which, at wildtype LRRK2 (setting [1]), the greatest degradation seen (Dmax) was 50 to 70% and the DC50 is less than 10 nM. On G2019S LRRK2 (setting [2]), this molecule had a half-maximal degradation concentration (DC50) of less than 10 nM and a maximal degradation (Dmax) of 50 to 70%.

With `CC1(Oc2ccc3[nH]nc(-c4cc(N5CCO[C@H](CCN6CCN(CC7CCN(c8ccc9c(c8)C(=O)N(C8CCC(=O)NC8=O)C9=O)CC7)CC6)C5)ncn4)c3c2)CC1` (stereo partly drawn) [Compound 155, 2-(2,6-dioxopiperidin-3-yl)-5-{4-[(4-{2-[(2R)-4-{6-[5-(1-methylcyclopropoxy)-1H-indazol-3-yl]pyrimidin-4-yl}morpholin-2-yl]ethyl}piperazin-1-yl)methyl]piperidin-1-yl}-2,3-dihydro-1H-isoindole-1,3-dione], on wildtype LRRK2 (setting [3]), the Dmax was in the range of 50 to 70% and the DC50 was less than 10 nM. Also, at G2019S LRRK2 (setting [4]), the half-maximal degradation concentration (DC50) is less than 10 nM and the greatest degradation seen (Dmax) lay within 50 to 70%.

As for `C[C@H]1CN(c2cc(-c3n[nH]c4ccc(OC5(C)CC5)cc34)ncn2)CCN1CC1CCN(CC2CCN(c3cc4c(cc3F)C(=O)N(C3CCC(=O)NC3=O)C4=O)CC2)CC1` (stereo partly drawn) [Compound 73, 2-(2,6-dioxo-3-piperidyl)-5-fluoro-6-[4-[[4-[[(2S)-2-methyl-4-[6-[5-(1-methylcyclopropoxy)-2H-indazol-3-yl]pyrimidin-4-yl]piperazin-1-yl]methyl]-1-piperidyl]methyl]-1-piperidyl]isoindoline-1,3-dione], on wildtype LRRK2 (setting [1]), the maximal degradation (Dmax) was less than 50% and the half-maximal degradation concentration (DC50) was less than 10 nM. For the same molecule, at G2019S LRRK2 (setting [2]), the DC50 was less than 10 nM and the Dmax was less than 50%.

On to `CC1(Oc2ccc3[nH]nc(-c4ccnc(N5CCC(C(=O)N6CCC(CN7CCN(c8ccc9c(c8)C(=O)N(C8CCC(=O)NC8=O)C9=O)CC7)CC6)CC5)c4)c3c2)CC1` (stereo not drawn) [Compound 87, 2-(2,6-dioxo-3-piperidyl)-5-[4-[[1-[1-[4-[5-(1-methylcyclopropoxy)-1H-indazol-3-yl]-2-pyridyl]piperidine-4-carbonyl]-4-piperidyl]methyl]piperazin-1-yl]isoindoline-1,3-dione], for which, at wildtype LRRK2 (setting [1]), the Dmax is less than 50% and the DC50 is less than 10 nM. Further, on G2019S LRRK2 (setting [2]), the 50% degradation concentration (DC50) is less than 10 nM and the maximal degradation (Dmax) is less than 50%.

With `CC1(Oc2ccc3n[nH]c(-c4cc(N5CCN(Cc6ccc(CN7CCN(c8ccc9c(c8)C(=O)N(C8CCC(=O)NC8=O)C9=O)CC7)cc6)CC5)ncn4)c3c2)CC1` (stereo not drawn) [Compound 169, 2-(2,6-dioxo-3-piperidyl)-5-[4-[[4-[[4-[6-[5-(1-methylcyclopropoxy)-2H-indazol-3-yl]pyrimidin-4-yl]piperazin-1-yl]methyl]phenyl]methyl]piperazin-1-yl]isoindoline-1,3-dione], the Dmax was less than 50% at wildtype LRRK2 (setting [3]) and 50 to 70% on G2019S LRRK2 (setting [4]). Further, the half-maximal degradation concentration (DC50) at wildtype LRRK2 (setting [3]) is less than 10 nM; at G2019S LRRK2 (setting [4]), 10 to 50 nM.

As for `C[C@H]1CN(c2cc(-c3n[nH]c4cc(F)c(OC5(C)CC5)cc34)ncn2)CCN1CC1(F)CCN(CC2CCN(c3ccc4c(c3)C(=O)N(C3CCC(=O)NC3=O)C4=O)CC2)CC1` (stereo partly drawn) [Compound 106, 2-(2,6-dioxo-3-piperidyl)-5-[4-[[4-fluoro-4-[[(2S)-4-[6-[6-fluoro-5-(1-methylcyclopropoxy)-1H-indazol-3-yl]pyrimidin-4-yl]-2-methyl-piperazin-1-yl]methyl]-1-piperidyl]methyl]-1-piperidyl]isoindoline-1,3-dione], the maximal degradation (Dmax) at wildtype LRRK2 (setting [1]) and at G2019S LRRK2 (setting [2]) was less than 50% throughout. The DC50 at wildtype LRRK2 (setting [1]) and at G2019S LRRK2 (setting [2]) was less than 10 nM throughout.

`CC1(Oc2ccc3[nH]nc(-c4cc(N5CCO[C@@H](CCN6CCN(CC7CCN(c8ccc9c(c8)C(=O)N(C8CCC(=O)NC8=O)C9=O)CC7)CC6)C5)ncn4)c3c2)CC1` (single isomer, unassigned) [Compound 154]: on wildtype LRRK2 (setting [3]), the Dmax lay in the range of 50 to 70% and the 50% degradation concentration (DC50) was less than 10 nM. In addition, at G2019S LRRK2 (setting [4]), the 50% degradation concentration (DC50) is less than 10 nM and the Dmax is 50 to 70%.

Regarding `CC1(Oc2ccc3[nH]nc(-c4cc(N5CCC(CN6CCN(CC7CCN(c8ccc9c(c8)C(=O)N(C8CCC(=O)NC8=O)C9=O)CC7)CC6)CC5)ncc4F)c3c2)CC1` (stereo not drawn) [Compound 99, 2-(2,6-dioxo-3-piperidyl)-5-[4-[[4-[[1-[5-fluoro-4-[5-(1-methylcyclopropoxy)-1H-indazol-3-yl]-2-pyridyl]-4-piperidyl]methyl]piperazin-1-yl]methyl]-1-piperidyl]isoindoline-1,3-dione], at wildtype LRRK2 (setting [1]), the Dmax is less than 50% and the DC50 lay in the range of 50 to 100 nM. At G2019S LRRK2 (setting [2]), this molecule yielded a DC50 of 50 to 100 nM and a maximal degradation (Dmax) of less than 50%.

As for `CC1(Oc2ccc3[nH]nc(-c4ccnc(N5CCN(CC6(F)CCN(CC7CCN(c8ccc9c(c8)C(=O)N(C8CCC(=O)NC8=O)C9=O)CC7)CC6)CC5)c4)c3c2)CC1` (stereo not drawn) [Compound 80, 2-(2,6-dioxo-3-piperidyl)-5-[4-[[4-fluoro-4-[[4-[4-[5-(1-methylcyclopropoxy)-1H-indazol-3-yl]-2-pyridyl]piperazin-1-yl]methyl]-1-piperidyl]methyl]-1-piperidyl]isoindoline-1,3-dione], at wildtype LRRK2 (setting [1]), the maximal degradation (Dmax) is less than 50% and the DC50 was less than 10 nM. On G2019S LRRK2 (setting [2]), this molecule yielded a half-maximal degradation concentration (DC50) of less than 10 nM and a Dmax of 50 to 70%.

For the molecule `CC1(Oc2ccc3n[nH]c(-c4cc(N5CCC(CN6CCN(CC7(F)CN(c8ccc9c(c8)C(=O)N(C8CCC(=O)NC8=O)C9=O)C7)CC6)CC5)ncn4)c3c2)CC1` (stereo not drawn) [Compound 134, 2-(2,6-dioxo-3-piperidyl)-5-[3-fluoro-3-[[4-[[1-[6-[5-(1-methylcyclopropoxy)-2H-indazol-3-yl]pyrimidin-4-yl]-4-piperidyl]methyl]piperazin-1-yl]methyl]azetidin-1-yl]isoindoline-1,3-dione], on wildtype LRRK2 (setting [1]), the greatest degradation seen (Dmax) is 50 to 70% and the DC50 was less than 10 nM. At G2019S LRRK2 (setting [2]), the DC50 is less than 10 nM and the Dmax was 50 to 70%.

For the molecule `CC1(Oc2ccc3[nH]nc(-c4cc(N5CCC(O[C@H]6CCN(CC7CCN(c8ccc9c(c8)C(=O)N(C8CCC(=O)NC8=O)C9=O)CC7)C6)CC5)ncn4)c3c2)CC1` (stereo partly drawn) [Compound 117, 2-(2,6-dioxopiperidin-3-yl)-5-(4-{[(3S)-3-[(1-{6-[5-(1-methylcyclopropoxy)-1H-indazol-3-yl]pyrimidin-4-yl}piperidin-4-yl)oxy]pyrrolidin-1-yl]methyl}piperidin-1-yl)-2,3-dihydro-1H-isoindole-1,3-dione], at wildtype LRRK2 (setting [1]), the maximal degradation (Dmax) was less than 50% and the DC50 is less than 10 nM. At G2019S LRRK2 (setting [2]), this molecule registered a 50% degradation concentration (DC50) of less than 10 nM and a Dmax of less than 50%.
